Source: patent US20120115896A1, “ISOGENIC HUMAN CELL LINES COMPRISING MUTATED CANCER ALLELES AND PROCESS USING THE CELL LINES” (priority 2008, published 2012)
Where two headings read alike, the source gives them in different places.

Experiments:
[1] = system: hTERT-HME1 DKI cells carrying PIK3CA (H1047R) and EGFR (delE746-A750)
[2] = system: hTERT-HME1 cells carrying EGFR (delE746-A750) KI; experiment: Drug assay: cell viability by ATP content (CellTiter-Glo, 96 h), KI versus parental cells; ΔKI pharmarray analysis
[3] = system: hTERT-HME1 DKI cells carrying PIK3CA (H1047R) and EGFR (delE746-A750); experiment: Drug assay: cell viability by ATP content (96 h), DKI versus parental cells; ΔKI pharmarray analysis
[4] = system: hTERT-HME1 cells carrying PIK3CA (E545K and H1047R) KI; experiment: Drug assay: cell viability by ATP content (96 h) and Hoechst/propidium iodide staining, KI versus parental cells; ΔKI pharmarray analysis
[5] = system: hTERT-HME1 cells carrying KRAS (G13D) KI; experiment: Drug assay: cell viability by ATP content (96 h), KI versus parental cells; ΔKI pharmarray analysis
[6] = system: hTERT-HME1 cells carrying BRAF (V600E) KI; experiment: as above

C[C@]12CC[C@@H]3c4ccc(O)cc4C[C@@H](CCCCCCCCC[S+]([O-])CCCC(F)(F)C(F)(F)F)[C@H]3[C@@H]1CC[C@@H]2O (stereo partly drawn) [Fulvestrant]
ΔKI PIK3CA + EGFR ([1]; Log(M) −4.05): 0
ΔKI PIK3CA + EGFR ([1]; Log(M) −4.52): 0
ΔKI PIK3CA + EGFR ([1]; Log(M) −5.00): 0

CO[C@H]1/C=C\C=C(/C)C(=O)NC2=CC(=O)C(NCCN(C)C)=C(C[C@@H](C)C[C@H](OC)[C@H](O)[C@@H](C)/C=C(\C)[C@@H]1OC(N)=O)C2=O [17-DMAG]
ΔKI EGFR ([2]; Log(M) −6.19): −1.5
ΔKI EGFR ([2]; Log(M) −6.89): −12.5
ΔKI EGFR ([2]; Log(M) −7.00): 0
ΔKI EGFR ([2]; Log(M) −7.40): 0
ΔKI EGFR ([2]; Log(M) −7.70): −8.56
ΔKI EGFR ([2]; Log(M) −8.10): 0
ΔKI EGFR ([2]; Log(M) −8.40): 0
pharmarray: differential response of EGFR mutated cells versus WT ([2]; hTERT-HME1, FIG. 5B, 5E): less susceptible than their WT counterpart
ΔKI PIK3CA + EGFR ([3]; Log(M) −6.19): 1.4
ΔKI PIK3CA + EGFR ([3]; Log(M) −6.89): 4.46
ΔKI PIK3CA + EGFR ([3]; Log(M) −7.00): 0
ΔKI PIK3CA + EGFR ([3]; Log(M) −7.40): −0.12
ΔKI PIK3CA + EGFR ([3]; Log(M) −7.70): 0
ΔKI PIK3CA + EGFR ([3]; Log(M) −8.10): −1.02
ΔKI PIK3CA + EGFR ([3]; Log(M) −8.40): 0
ΔKI PIK3CA ([4]; Log(M) −6.19): 0
ΔKI PIK3CA ([4]; Log(M) −6.89): 0
ΔKI PIK3CA ([4]; Log(M) −7.00): 0
ΔKI PIK3CA ([4]; Log(M) −7.40): 0
ΔKI PIK3CA ([4]; Log(M) −7.70): 0
ΔKI PIK3CA ([4]; Log(M) −8.10): 0
ΔKI PIK3CA ([4]; Log(M) −8.40): 0
ΔKI KRAS ([5]; Log(M) −6.19): 0
ΔKI KRAS ([5]; Log(M) −6.89): 0
ΔKI KRAS ([5]; Log(M) −7.00): 0
ΔKI KRAS ([5]; Log(M) −7.40): 0
ΔKI KRAS ([5]; Log(M) −7.70): 0
ΔKI KRAS ([5]; Log(M) −8.10): 0
ΔKI KRAS ([5]; Log(M) −8.40): 0
ΔKI BRAF ([6]; Log(M) −6.19): 0
ΔKI BRAF ([6]; Log(M) −6.89): 0
ΔKI BRAF ([6]; Log(M) −7.00): 0
ΔKI BRAF ([6]; Log(M) −7.40): 0
ΔKI BRAF ([6]; Log(M) −7.70): 0
ΔKI BRAF ([6]; Log(M) −8.10): 0
ΔKI BRAF ([6]; Log(M) −8.40): 0

Sodium Phenylbutyrate
ΔKI EGFR ([2]; Log(M) −1.97): 0
ΔKI EGFR ([2]; Log(M) −2.44): 0
ΔKI EGFR ([2]; Log(M) −2.92): 0
ΔKI PIK3CA + EGFR ([3]; Log(M) −1.97): 0
ΔKI PIK3CA + EGFR ([3]; Log(M) −2.44): 0
ΔKI PIK3CA + EGFR ([3]; Log(M) −2.92): 0
ΔKI PIK3CA ([4]; Log(M) −1.97): 0
ΔKI PIK3CA ([4]; Log(M) −2.44): 0
ΔKI PIK3CA ([4]; Log(M) −2.92): 0
ΔKI KRAS ([5]; Log(M) −1.97): 0
ΔKI KRAS ([5]; Log(M) −2.44): 0
ΔKI KRAS ([5]; Log(M) −2.92): 0
ΔKI BRAF ([6]; Log(M) −1.97): 0
ΔKI BRAF ([6]; Log(M) −2.44): 0
ΔKI BRAF ([6]; Log(M) −2.92): 0

COC(=O)C1=CC[C@@]23CC[C@@H]([C@@](C)(/C=C/C=C(\C)C(=O)O)OC2=O)[C@@]3(OC(C)=O)CC1 [Pseudolaric Acid B]
ΔKI EGFR [2]: 0
ΔKI EGFR ([2]; Log(M) −6.48): 0
ΔKI PIK3CA + EGFR ([3]; Log(M) −6.48): 0.54
ΔKI PIK3CA [4]: 0
ΔKI PIK3CA ([4]; Log(M) −6.48): 0
ΔKI KRAS [5]: 0
ΔKI KRAS ([5]; Log(M) −6.48): 0
ΔKI BRAF ([6]; Log(M) −6.48): 0

CCCCCc1cc(O)c2c(c1)OC(C)(C)[C@@H]1CCC(C)=C[C@@H]21 [THC]
ΔKI EGFR [2]: 0
ΔKI PIK3CA + EGFR [3]: 0
ΔKI PIK3CA [4]: 0
ΔKI KRAS [5]: 0
ΔKI BRAF [6]: 0.3
ΔKI BRAF ([6]; Log(M) −4.60): 0.46
ΔKI BRAF ([6]; listed as OGC-089): 0.88

CN(C)CCCn1cc(C2=C(c3c[nH]c4ccccc34)C(=O)NC2=O)c2ccccc21 [Bisindolylmaleimide I]
ΔKI EGFR [2]: 0
ΔKI EGFR ([2]; Log(M) −5.70): 0
ΔKI PIK3CA + EGFR [3]: 0
ΔKI PIK3CA + EGFR ([3]; Log(M) −5.70): 0
ΔKI PIK3CA [4]: 0
ΔKI PIK3CA ([4]; Log(M) −5.70): 0
ΔKI KRAS [5]: 0
ΔKI KRAS ([5]; Log(M) −5.70): 0
ΔKI BRAF [6]: 0
ΔKI BRAF ([6]; Log(M) −5.70): 0

CC(C)c1c(C(=O)Nc2ccccc2)c(-c2ccccc2)c(-c2ccc(F)cc2)n1CC[C@@H](O)C[C@@H](O)CC(=O)[O-].CC(C)c1c(C(=O)Nc2ccccc2)c(-c2ccccc2)c(-c2ccc(F)cc2)n1CC[C@@H](O)C[C@@H](O)CC(=O)[O-].[Ca+2] [Atorvastatin Ca]
ΔKI EGFR ([2]; Log(M) −5.25): 0
ΔKI EGFR ([2]; Log(M) −5.85): 0
ΔKI EGFR ([2]; Log(M) −6.46): 0
ΔKI PIK3CA + EGFR ([3]; Log(M) −5.25): 0
ΔKI PIK3CA + EGFR ([3]; Log(M) −5.85): 0
ΔKI PIK3CA + EGFR ([3]; Log(M) −6.46): 0
ΔKI PIK3CA ([4]; Log(M) −5.25): 0
ΔKI PIK3CA ([4]; Log(M) −5.85): 9.44
ΔKI PIK3CA ([4]; Log(M) −6.46): 0
ΔKI KRAS ([5]; Log(M) −5.25): 0
ΔKI KRAS ([5]; Log(M) −5.85): 0
ΔKI KRAS ([5]; Log(M) −6.46): 0
ΔKI BRAF ([6]; Log(M) −5.25): 0
ΔKI BRAF ([6]; Log(M) −5.85): −2.6
ΔKI BRAF ([6]; Log(M) −6.46): 0

O=C1CCC(N2C(=O)c3ccccc3C2=O)C(=O)N1 (stereo not drawn) [OGC-065]
ΔKI EGFR [2]: 0
ΔKI EGFR ([2]; Log(M) −2.05): 0
ΔKI EGFR ([2]; Log(M) −3.35): −0.68
ΔKI PIK3CA + EGFR ([3]; Log(M) −2.05): 0
ΔKI PIK3CA + EGFR ([3]; Log(M) −3.35): −0.8
ΔKI PIK3CA [4]: 0
ΔKI PIK3CA ([4]; Log(M) −2.05): 1.9
ΔKI PIK3CA ([4]; Log(M) −3.35): 0
ΔKI KRAS [5]: 0
ΔKI KRAS ([5]; Log(M) −2.05): 0
ΔKI KRAS ([5]; Log(M) −3.35): 0
ΔKI BRAF [6]: 0
ΔKI BRAF ([6]; Log(M) −2.05): 0
ΔKI BRAF ([6]; Log(M) −3.35): 0

Erybraedin C
ΔKI EGFR [2]: 0
ΔKI EGFR ([2]; Log(M) −4.70): 0
ΔKI PIK3CA + EGFR ([3]; Log(M) −4.70): 0.38
ΔKI PIK3CA [4]: 0
ΔKI PIK3CA ([4]; Log(M) −4.70): 0
ΔKI KRAS [5]: 0
ΔKI KRAS ([5]; Log(M) −4.70): 0
ΔKI BRAF [6]: 0
ΔKI BRAF ([6]; Log(M) −4.70): 0
